Laboratory results: the NIST ThermoML archive (doi:10.1021/je101361u)

Experiment: xn = mol fraction of the nth substance listed
Details: 101.3 kPa, Liquid, Vibrating tube method

CCOCCOCCOCC [diethylene glycol diethyl ether] + ClCCCl
Details	mass density [kg/m3]
283.15 K, x2 = 0.0234	920.54
283.15 K, x2 = 0.0504	925.19
283.15 K, x2 = 0.0751	929.56
283.15 K, x2 = 0.1009	934.31
283.15 K, x2 = 0.1504	943.66
283.15 K, x2 = 0.2	953.71
283.15 K, x2 = 0.2546	965.43
283.15 K, x2 = 0.2999	975.65
283.15 K, x2 = 0.35	987.75
283.15 K, x2 = 0.4006	1000.78
283.15 K, x2 = 0.4502	1014.42
283.15 K, x2 = 0.5002	1029.16
283.15 K, x2 = 0.5499	1044.87
283.15 K, x2 = 0.6	1061.87
283.15 K, x2 = 0.65	1080.19
283.15 K, x2 = 0.6999	1100.05
283.15 K, x2 = 0.7492	1121.14
283.15 K, x2 = 0.8	1145.22
283.15 K, x2 = 0.85	1171.12
283.15 K, x2 = 0.9	1199.76
283.15 K, x2 = 0.95	1231.56
283.15 K, x2 = 0.975	1248.9
288.15 K, x2 = 0.0234	915.7
288.15 K, x2 = 0.0504	920.3
288.15 K, x2 = 0.0751	924.64
288.15 K, x2 = 0.1009	929.36
288.15 K, x2 = 0.1504	938.64
288.15 K, x2 = 0.2	948.62
288.15 K, x2 = 0.2546	960.24
288.15 K, x2 = 0.2999	970.39
288.15 K, x2 = 0.35	982.41
288.15 K, x2 = 0.4006	995.34
288.15 K, x2 = 0.4502	1008.87
288.15 K, x2 = 0.5002	1023.52
288.15 K, x2 = 0.5499	1039.11
288.15 K, x2 = 0.6	1056
288.15 K, x2 = 0.65	1074.19
288.15 K, x2 = 0.6999	1093.92
288.15 K, x2 = 0.7492	1114.87
288.15 K, x2 = 0.8	1138.79
288.15 K, x2 = 0.85	1164.52
288.15 K, x2 = 0.9	1192.98
288.15 K, x2 = 0.95	1224.58
288.15 K, x2 = 0.975	1241.8
293.15 K, x2 = 0.0234	910.83
293.15 K, x2 = 0.0504	915.41
293.15 K, x2 = 0.0751	919.72
293.15 K, x2 = 0.1009	924.39
293.15 K, x2 = 0.1504	933.61
293.15 K, x2 = 0.2	943.52
293.15 K, x2 = 0.2546	955.05
293.15 K, x2 = 0.2999	965.13
293.15 K, x2 = 0.35	977.05
293.15 K, x2 = 0.4006	989.89
293.15 K, x2 = 0.4502	1003.32
293.15 K, x2 = 0.5002	1017.86
293.15 K, x2 = 0.5499	1033.35
293.15 K, x2 = 0.6	1050.12
293.15 K, x2 = 0.65	1068.18
293.15 K, x2 = 0.6999	1087.77
293.15 K, x2 = 0.7492	1108.58
293.15 K, x2 = 0.8	1132.34
293.15 K, x2 = 0.85	1157.9
293.15 K, x2 = 0.9	1186.17
293.15 K, x2 = 0.95	1217.56
293.15 K, x2 = 0.975	1234.66
298.15 K, x2 = 0.0234	905.98
298.15 K, x2 = 0.0504	910.52
298.15 K, x2 = 0.0751	914.8
298.15 K, x2 = 0.1009	919.44
298.15 K, x2 = 0.1504	928.58
298.15 K, x2 = 0.2	938.42
298.15 K, x2 = 0.2546	949.86
298.15 K, x2 = 0.2999	959.86
298.15 K, x2 = 0.35	971.69
298.15 K, x2 = 0.4006	984.44
298.15 K, x2 = 0.4502	997.77
298.15 K, x2 = 0.5002	1012.21
298.15 K, x2 = 0.5499	1027.58
298.15 K, x2 = 0.6	1044.23
298.15 K, x2 = 0.65	1062.16
298.15 K, x2 = 0.6999	1081.63
298.15 K, x2 = 0.7492	1102.29
298.15 K, x2 = 0.8	1125.89
298.15 K, x2 = 0.85	1151.27
298.15 K, x2 = 0.9	1179.35
298.15 K, x2 = 0.95	1210.52
298.15 K, x2 = 0.975	1227.5
303.15 K, x2 = 0.0234	901.12
303.15 K, x2 = 0.0504	905.62
303.15 K, x2 = 0.0751	909.87
303.15 K, x2 = 0.1009	914.47
303.15 K, x2 = 0.1504	923.55
303.15 K, x2 = 0.2	933.31
303.15 K, x2 = 0.2546	944.67
303.15 K, x2 = 0.2999	954.59
303.15 K, x2 = 0.35	966.34
303.15 K, x2 = 0.4006	978.99
303.15 K, x2 = 0.4502	992.22
303.15 K, x2 = 0.5002	1006.55
303.15 K, x2 = 0.5499	1021.8
303.15 K, x2 = 0.6	1038.33
303.15 K, x2 = 0.65	1056.14
303.15 K, x2 = 0.6999	1075.47
303.15 K, x2 = 0.7492	1095.99
303.15 K, x2 = 0.8	1119.42
303.15 K, x2 = 0.85	1144.62
303.15 K, x2 = 0.9	1172.51
303.15 K, x2 = 0.95	1203.45
303.15 K, x2 = 0.975	1220.32
308.15 K, x2 = 0.0234	896.25
308.15 K, x2 = 0.0504	900.73
308.15 K, x2 = 0.0751	904.95
308.15 K, x2 = 0.1009	909.51
308.15 K, x2 = 0.1504	918.52
308.15 K, x2 = 0.2	928.2
308.15 K, x2 = 0.2546	939.47
308.15 K, x2 = 0.2999	949.32
308.15 K, x2 = 0.35	960.97
308.15 K, x2 = 0.4006	973.53
308.15 K, x2 = 0.4502	986.66
308.15 K, x2 = 0.5002	1000.88
308.15 K, x2 = 0.5499	1016.02
308.15 K, x2 = 0.6	1032.44
308.15 K, x2 = 0.65	1050.11
308.15 K, x2 = 0.6999	1069.3
308.15 K, x2 = 0.7492	1089.67
308.15 K, x2 = 0.8	1112.94
308.15 K, x2 = 0.85	1137.96
308.15 K, x2 = 0.9	1165.64
308.15 K, x2 = 0.95	1196.36
308.15 K, x2 = 0.975	1213.1
313.15 K, x2 = 0.0234	891.38
313.15 K, x2 = 0.0504	895.82
313.15 K, x2 = 0.0751	900.01
313.15 K, x2 = 0.1009	904.54
313.15 K, x2 = 0.1504	913.47
313.15 K, x2 = 0.2	923.09
313.15 K, x2 = 0.2546	934.27
313.15 K, x2 = 0.2999	944.04
313.15 K, x2 = 0.35	955.6
313.15 K, x2 = 0.4006	968.06
313.15 K, x2 = 0.4502	981.1
313.15 K, x2 = 0.5002	995.21
313.15 K, x2 = 0.5499	1010.23
313.15 K, x2 = 0.6	1026.51
313.15 K, x2 = 0.65	1044.07
313.15 K, x2 = 0.6999	1063.11
313.15 K, x2 = 0.7492	1083.34
313.15 K, x2 = 0.8	1106.44
313.15 K, x2 = 0.85	1131.28
313.15 K, x2 = 0.9	1158.75
313.15 K, x2 = 0.95	1189.24
313.15 K, x2 = 0.975	1205.85
318.15 K, x2 = 0.0234	886.51
318.15 K, x2 = 0.0504	890.92
318.15 K, x2 = 0.0751	895.06
318.15 K, x2 = 0.1009	899.56
318.15 K, x2 = 0.1504	908.43
318.15 K, x2 = 0.2	917.97
318.15 K, x2 = 0.2546	929.05
318.15 K, x2 = 0.2999	938.75
318.15 K, x2 = 0.35	950.21
318.15 K, x2 = 0.4006	962.59
318.15 K, x2 = 0.4502	975.52
318.15 K, x2 = 0.5002	989.52
318.15 K, x2 = 0.5499	1004.42
318.15 K, x2 = 0.6	1020.6
318.15 K, x2 = 0.65	1038
318.15 K, x2 = 0.6999	1056.9
318.15 K, x2 = 0.7492	1077
318.15 K, x2 = 0.8	1099.91
318.15 K, x2 = 0.85	1124.57
318.15 K, x2 = 0.9	1151.82
318.15 K, x2 = 0.95	1182.08
318.15 K, x2 = 0.975	1198.56
323.15 K, x2 = 0	877.66
323.15 K, x2 = 0.0234	881.62
323.15 K, x2 = 0.0504	886
323.15 K, x2 = 0.0751	890.1
323.15 K, x2 = 0.1009	894.58
323.15 K, x2 = 0.1504	903.37
323.15 K, x2 = 0.2	912.84
323.15 K, x2 = 0.2546	923.83
323.15 K, x2 = 0.2999	933.46
323.15 K, x2 = 0.35	944.83
323.15 K, x2 = 0.4006	957.11
323.15 K, x2 = 0.4502	969.94
323.15 K, x2 = 0.5002	983.83
323.15 K, x2 = 0.5499	998.59
323.15 K, x2 = 0.6	1014.67
323.15 K, x2 = 0.65	1031.92
323.15 K, x2 = 0.6999	1050.67
323.15 K, x2 = 0.7492	1070.63
323.15 K, x2 = 0.8	1093.36
323.15 K, x2 = 0.85	1117.84
323.15 K, x2 = 0.9	1144.87
323.15 K, x2 = 0.95	1174.86
323.15 K, x2 = 0.975	1191.23
328.15 K, x2 = 0.0234	876.73
328.15 K, x2 = 0.0504	881.07
328.15 K, x2 = 0.0751	885.15
328.15 K, x2 = 0.1009	889.59
328.15 K, x2 = 0.1504	898.31
328.15 K, x2 = 0.2	907.7
328.15 K, x2 = 0.2546	918.61
328.15 K, x2 = 0.2999	928.16
328.15 K, x2 = 0.35	939.44
328.15 K, x2 = 0.4006	951.61
328.15 K, x2 = 0.4502	964.34
328.15 K, x2 = 0.5002	978.12
328.15 K, x2 = 0.5499	992.77
328.15 K, x2 = 0.6	1008.71
328.15 K, x2 = 0.65	1025.84
328.15 K, x2 = 0.6999	1044.44
328.15 K, x2 = 0.7492	1064.24
328.15 K, x2 = 0.8	1086.78
328.15 K, x2 = 0.85	1111.08
328.15 K, x2 = 0.9	1137.9
328.15 K, x2 = 0.95	1167.69
328.15 K, x2 = 0.975	1183.9
333.15 K, x2 = 0.0234	871.83
333.15 K, x2 = 0.0504	876.13
333.15 K, x2 = 0.0751	880.18
333.15 K, x2 = 0.1009	884.59
333.15 K, x2 = 0.1504	893.23
333.15 K, x2 = 0.2	902.54
333.15 K, x2 = 0.2546	913.36
333.15 K, x2 = 0.2999	922.86
333.15 K, x2 = 0.35	934.03
333.15 K, x2 = 0.4006	946.09
333.15 K, x2 = 0.4502	958.72
333.15 K, x2 = 0.5002	972.39
333.15 K, x2 = 0.5499	986.94
333.15 K, x2 = 0.6	1002.74
333.15 K, x2 = 0.65	1019.73
333.15 K, x2 = 0.6999	1038.18
333.15 K, x2 = 0.7492	1057.81
333.15 K, x2 = 0.8	1080.17
333.15 K, x2 = 0.85	1104.27
333.15 K, x2 = 0.9	1130.88
333.15 K, x2 = 0.95	1160.44
333.15 K, x2 = 0.975	1176.53
